From patent US11654136B2, “Phosphoinositide 3-kinase inhibitor with a zinc binding moiety” (Curis, Inc., priority 2011, dated 2023)

How the values were obtained:
Type in all cases: cell-based
[1] = system: H292; test: Cell proliferation assay H292; details: Homo sapiens, NCI-H292, NSCLC, 72 hours, read-out: IC50 antiproliferative activity
Procedure: (§1) Growth inhibition was accessed by adenosine triphosphate (ATP) content assay using Promega CellTiter-Glo kit. Promega CellTiter-Glo kit is an ATP monitoring system based on firefly luciferase. Briefly, 16 μl of mammalian cell lysis and substrate solution was added to 84 µl of culture medium per well to lyse the cells and stabilize the ATP. The mixture was shaken and incubated for 30 minutes and subsequently the luminescence was measured. IC50 values were calculated using PRISM software (GraphPad Software) with sigmoidal dose-response curve fitting.

[2] = system: UACC-893; test: Cell proliferation assay UACC-893; details: Homo sapiens, Breast, 72 hours, read-out: IC50 antiproliferative activity
Procedure: as §1

[3] = system: U937; test: Cell proliferation assay U937; details: Homo sapiens, U-937, AML, 72 hours, read-out: IC50 antiproliferative activity
Procedure: as §1

[4] = system: Daudi; test: Cell proliferation assay Daudi; details: Homo sapiens, B-Cell Lymphoma, 72 hours, read-out: IC50 antiproliferative activity
Procedure: as §1

[5] = system: CFPAC-1; test: Cell proliferation assay CFPAC-1; details: Homo sapiens, Pancreas, 72 hours, read-out: IC50 antiproliferative activity
Procedure: as §1

[6] = system: ARH77; test: Cell proliferation assay ARH77; details: Homo sapiens, ARH-77, Multiple Myeloma, 72 hours, read-out: IC50 antiproliferative activity
Procedure: as §1

[7] = system: A549; test: Cell proliferation assay A549; details: Homo sapiens, NSCLC, 72 hours, read-out: IC50 antiproliferative activity
Procedure: as §1

[8] = system: H2122; test: Cell proliferation assay H2122; details: Homo sapiens, NCI-H2122, NSCLC, 72 hours, read-out: IC50 antiproliferative activity
Procedure: as §1

[9] = system: MDA-MB-361; test: Cell proliferation assay MDA-MB-361; details: Homo sapiens, Breast, 72 hours, read-out: IC50 antiproliferative activity
Procedure: as §1

[10] = system: MOLT-4; test: Cell proliferation assay MOLT-4; details: Homo sapiens, ALL, 72 hours, read-out: IC50 antiproliferative activity
Procedure: as §1

[11] = system: BT474; test: Cell proliferation assay BT474; details: Homo sapiens, BT-474, Breast, 72 hours, read-out: IC50 antiproliferative activity
Procedure: as §1

[12] = system: Granta 519; test: Cell proliferation assay Granta 519; details: Homo sapiens, B-Cell Lymphoma, 72 hours, read-out: IC50 antiproliferative activity
Procedure: as §1

[13] = system: MiaPaca2; test: Cell proliferation assay MiaPaca2; details: Homo sapiens, MIA PaCa-2, Pancreas, 72 hours, read-out: IC50 antiproliferative activity
Procedure: as §1

[14] = system: SUP-B15; test: Cell proliferation assay SUP-B15; details: Homo sapiens, ALL, 72 hours, read-out: IC50 antiproliferative activity
Procedure: as §1

[15] = system: MCF-7; test: Cell proliferation assay MCF-7; details: Homo sapiens, MCF7, Breast, 72 hours, read-out: IC50 antiproliferative activity
Procedure: as §1

[16] = system: HCT116; test: Cell proliferation assay HCT116; details: Homo sapiens, HCT-116, Colon, 72 hours, read-out: IC50 antiproliferative activity
Procedure: as §1

[17] = system: THP-1; test: Cell proliferation assay THP-1; details: Homo sapiens, AML, 72 hours, read-out: IC50 antiproliferative activity
Procedure: as §1

[18] = system: DOHH2; test: Cell proliferation assay DOHH2; details: Homo sapiens, DOHH-2, B-Cell Lymphoma, 72 hours, read-out: IC50 antiproliferative activity
Procedure: as §1

[19] = system: SKBr3; test: Cell proliferation assay SKBr3; details: Homo sapiens, SK-BR-3, Breast, 72 hours, read-out: IC50 antiproliferative activity
Procedure: as §1

[20] = system: Raji; test: Cell proliferation assay Raji; details: Homo sapiens, B-Cell Lymphoma, 72 hours, read-out: IC50 antiproliferative activity
Procedure: as §1

[21] = system: MDA-MB-231; test: Cell proliferation assay MDA-MB-231; details: Homo sapiens, Breast, 72 hours, read-out: IC50 antiproliferative activity
Procedure: as §1

[22] = system: SW403; test: Cell proliferation assay SW403; details: Homo sapiens, SW-403, Colon, 72 hours, read-out: IC50 antiproliferative activity
Procedure: as §1

[23] = system: SW620; test: Cell proliferation assay SW620; details: Homo sapiens, SW-620, Colon, 72 hours, read-out: IC50 antiproliferative activity
Procedure: as §1

[24] = system: SW1990; test: Cell proliferation assay SW1990; details: Homo sapiens, Pancreas, 72 hours, read-out: IC50 antiproliferative activity
Procedure: as §1

[25] = system: HCC1806; test: Cell proliferation assay HCC1806; details: Homo sapiens, Breast, 72 hours, read-out: IC50 antiproliferative activity
Procedure: as §1

[26] = system: MV-4-11; test: Cell proliferation assay MV-4-11; details: Homo sapiens, MV4-11, AML, 72 hours, read-out: IC50 antiproliferative activity
Procedure: as §1

[27] = system: HH; test: Cell proliferation assay HH; details: Homo sapiens, T-Cell Lymphoma, 72 hours, read-out: IC50 antiproliferative activity
Procedure: as §1

[28] = system: T47D; test: Cell proliferation assay T47D; details: Homo sapiens, Breast, 72 hours, read-out: IC50 antiproliferative activity
Procedure: as §1

[29] = system: CaPan2; test: Cell proliferation assay CaPan2; details: Homo sapiens, Capan-2, Pancreas, 72 hours, read-out: IC50 antiproliferative activity
Procedure: as §1

[30] = system: H358; test: Cell proliferation assay H358; details: Homo sapiens, NCI-H358, NSCLC, 72 hours, read-out: IC50 antiproliferative activity
Procedure: as §1

[31] = system: WiDr; test: Cell proliferation assay WiDr; details: Homo sapiens, Colon, 72 hours, read-out: IC50 antiproliferative activity
Procedure: as §1

[32] = system: MJ; test: Cell proliferation assay MJ; details: Homo sapiens, T-Cell Lymphoma, 72 hours, read-out: IC50 antiproliferative activity
Procedure: as §1

[33] = system: HCC1500; test: Cell proliferation assay HCC1500; details: Homo sapiens, Breast, 72 hours, read-out: IC50 antiproliferative activity
Procedure: as §1

[34] = system: RL; test: Cell proliferation assay RL; details: Homo sapiens, B-Cell Lymphoma, 72 hours, read-out: IC50 antiproliferative activity
Procedure: as §1

[35] = system: Su-DHL4; test: Cell proliferation assay Su-DHL4; details: Homo sapiens, SU-DHL-4, B-Cell Lymphoma, 72 hours, read-out: IC50 antiproliferative activity
Procedure: as §1

[36] = system: Pfeiffer; test: Cell proliferation assay Pfeiffer; details: Homo sapiens, B-Cell Lymphoma, 72 hours, read-out: IC50 antiproliferative activity
Procedure: as §1

[37] = system: T-84; test: Cell proliferation assay T-84; details: Homo sapiens, T84, Colon, 72 hours, read-out: IC50 antiproliferative activity
Procedure: as §1

[38] = system: MDA-MB-453; test: Cell proliferation assay MDA-MB-453; details: Homo sapiens, Breast, 72 hours, read-out: IC50 antiproliferative activity
Procedure: as §1

## COc1ccc(-c2nc(N3CCOCC3)c3sc(CN(C)c4ncc(C(=O)NO)cn4)cc3n2)cn1 [Compound 1, N-hydroxy-2-(((2-(6-methoxypyridin-3-yl)-4-morpholinothieno[3,2-d]pyrimidin-6-yl)methyl)(methyl)amino)pyrimidine-5-carboxamide]
[1]
  IC50: < 10 nM
[2]
  IC50: 10 to 100 nM
[3]
  IC50: < 10 nM
[4]
  IC50: 10 to 100 nM
[5]
  IC50: 10 to 100 nM
[6]
  IC50: < 10 nM
[7]
  IC50: 10 to 100 nM
[8]
  IC50: < 10 nM
[9]
  IC50: < 10 nM
[10]
  IC50: < 10 nM
[11]
  IC50: < 10 nM
[12]
  IC50: < 10 nM
[13]
  IC50: 10 to 100 nM
[14]
  IC50: < 10 nM
[15]
  IC50: < 10 nM
[16]
  IC50: < 10 nM
[17]
  IC50: 10 to 100 nM
[18]
  IC50: < 10 nM
[19]
  IC50: 10 to 100 nM
[20]
  IC50: 10 to 100 nM
[21]
  IC50: 10 to 100 nM
[22]
  IC50: < 10 nM
[23]
  IC50: < 10 nM
[24]
  IC50: < 10 nM
[25]
  IC50: 10 to 100 nM
[26]
  IC50: < 10 nM
[27]
  IC50: < 10 nM
[28]
  IC50: 10 to 100 nM
[29]
  IC50: 10 to 100 nM
[30]
  IC50: < 10 nM
[31]
  IC50: 10 to 100 nM
[32]
  IC50: < 10 nM
[33]
  IC50: < 10 nM
[34]
  IC50: < 10 nM
[35]
  IC50: < 10 nM
[36]
  IC50: < 10 nM
[37]
  IC50: 10 to 100 nM
[38]
  IC50: < 10 nM

## CS(=O)(=O)N1CCN(Cc2cc3nc(-c4cccc5[nH]ncc45)nc(N4CCOCC4)c3s2)CC1 [GDC-0941, reference compound]
[1]
  IC50: 1000 to 10000 nM
[2]
  IC50: 1000 to 10000 nM
[3]
  IC50: 1000 to 10000 nM
[4]
  IC50: > 10000 nM
[5]
  IC50: > 10000 nM
[6]
  IC50: > 10000 nM
[7]
  IC50: 1000 to 10000 nM
[8]
  IC50: 1000 to 10000 nM
[9]
  IC50: 100 to 1000 nM
[10]
  IC50: 100 to 1000 nM
[11]
  IC50: 100 to 1000 nM
[12]
  IC50: > 10000 nM
[13]
  IC50: > 10000 nM
[14]
  IC50: 1000 to 10000 nM
[15]
  IC50: 100 to 1000 nM
[16]
  IC50: 1000 to 10000 nM
[17]
  IC50: 1000 to 10000 nM
[18]
  IC50: 10 to 100 nM
[19]
  IC50: > 10000 nM
[20]
  IC50: > 10000 nM
[21]
  IC50: > 10000 nM
[22]
  IC50: > 10000 nM
[23]
  IC50: > 10000 nM
[24]
  IC50: > 10000 nM
[25]
  IC50: > 10000 nM
[26]
  IC50: 1000 to 10000 nM
[27]
  IC50: 100 to 1000 nM
[28]
  IC50: > 10000 nM
[29]
  IC50: > 10000 nM
[30]
  IC50: 1000 to 10000 nM
[31]
  IC50: > 10000 nM
[32]
  IC50: > 10000 nM
[33]
  IC50: > 10000 nM
[34]
  IC50: 1000 to 10000 nM
[35]
  IC50: 100 to 1000 nM
[36]
  IC50: 100 to 1000 nM
[37]
  IC50: 1000 to 10000 nM
[38]
  IC50: 100 to 1000 nM
